We go through three molecules from PMC9697131, “Agomelatine, Ketamine and Vortioxetine Attenuate Energy Cell Metabolism—In Vitro Study” (International Journal of Molecular Sciences, 2022).

Molecules are shown by their SMILES.

Test [1] has as its target T1, malate dehydrogenase (MDH) (Sus scrofa, UniProt P00346).
T1 construct: Frozen mitochondria (stored at −70 °C) were used for the following enzyme activity measurements: ETC complexes, citrate synthase (CS) and malate dehydrogenase (MDH) activity; from tissue; host or cells: pig brain cortex, purified mitochondrial fraction (frozen, sonicated)
T1 sequence (P00346 25-338): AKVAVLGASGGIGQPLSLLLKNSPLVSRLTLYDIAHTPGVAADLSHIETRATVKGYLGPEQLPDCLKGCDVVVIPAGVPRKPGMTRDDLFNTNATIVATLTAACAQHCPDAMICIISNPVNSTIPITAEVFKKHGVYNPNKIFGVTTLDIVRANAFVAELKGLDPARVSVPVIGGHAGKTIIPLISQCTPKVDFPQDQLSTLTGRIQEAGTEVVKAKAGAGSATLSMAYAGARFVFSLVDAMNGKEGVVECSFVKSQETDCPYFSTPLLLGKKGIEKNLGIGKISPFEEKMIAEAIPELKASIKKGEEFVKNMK
Briefly: Malate dehydrogenase activity. The format is biochemical, pig. Particulars: mean, N=3. The protocol: (§1) Pig brains were obtained from a slaughterhouse. Mitochondrial fraction isolation and purification from brain cortex were performed as previously described. Briefly, grey matter from pig brains was homogenized and crude mitochondrial fraction was isolated and then centrifuged on the sucrose gradient to obtain purified mitochondrial fraction. The freshly purified mitochondria were kept on ice until the assays were performed and were used for measurements of the mitochondrial oxygen consumption rate, measurements of ATP and ROS formation. Frozen mitochondria (stored at −70 °C) were used for the following enzyme activity measurements: ETC complexes, citrate synthase (CS) and malate dehydrogenase (MDH) activity.
Ultrasonication and incubation of mitochondria with the tested drugs for 30 min at 30 °C was performed before measurement with a corresponding drug-free control (DMSO) for every measurement. Mitochondrial enzymes activities were determined spectrophotometrically as absorbance using a GENESYS 180 UV-Vis Spectrophotometer (Thermo Fisher Scientific, Waltham, MA, USA).
The conversion of oxaloacetate to malate was used to measure the activity, and it was measured at 340 nm for 3 min. The reaction was initiated by adding oxaloacetate and nicotinamide adenine dinucleotide (NADH). […]

For test [2], the system named is complex II+III-linked ATP kinetics, pig brain mitochondria. Briefly: Complex II+III-linked ATP kinetics, bioluminescence. The format is biochemical. Particulars: 10 μM drug; mean ± SD. The protocol:
as §1
The following protocol has been modified and optimized. An ATP Bioluminescence Assay Kit CLS II was used to measure ATP content and kinetics. The luminescence was measured using FluoroMax-3 (Jobin Yvon, Edison, NJ, USA) at 562 nm. Standard curve for ATP determination was prepared from ATP standard in the range from 0 to 600 nM. […]
For ATP kinetics determination MiR05 buffer, mitochondria and drugs were incubated on ice for 20 min and another 10 min at room temperature. Background luminescence was measured. Consequently, the same substrate mixture as mentioned above, and 230 µL of luciferase reagent were added and ATP kinetics was determined by measuring the luminescence for 4 min. […]

As for `Cc1ccc(Sc2ccccc2N2CCNCC2)c(C)c1` [vortioxetine], the results for the “MDH (% of Control)” value in test [1] (10 μM drug) and in test [1] (100 μM drug) were 106.9 % of Control and 100.2 % of Control, respectively.

Turning to `CNC1(c2ccccc2Cl)CCCCC1=O` (stereo not shown) [ketamine], the results for the “MDH (% of Control)” value in test [1] (10 μM drug) and in test [1] (100 μM drug) were 97.4 % of Control and 101.7 % of Control, respectively. Further, the “complex II+III-linked ATP kinetics (relative to control = 100%)” value in test [2] was 84.9 ± 5.9%.

Turning to `COc1ccc2cccc(CCNC(C)=O)c2c1` [agomelatine], the “MDH (% of Control)” value in test [1] (10 μM drug) is on record as 101.7 % of Control; in test [1] (100 μM drug) it was 101.0 % of Control.
